According to US20230127965A1, “METHODS FOR TREATING, AMELIORATING, OR PREVENTING VIRAL INFECTIONS” (Thomas Jefferson University, priority 2020, published 2023):
“Also recorded” adds a separate entry of the source.

Key:
Type in all cases: cell-based
androgen receptor (AR) = tested on: androgen receptor (AR)
Dengue virus = Dengue virus infection of U2OS cells, qPCR; details: 10 μM, treated 2 hours before infection, MOI of 1, ~16-18 hours (FIG. 6)
Zika virus = Zika virus infection of U2OS cells, qPCR; details: 10 μM, treated 2 hours before infection, MOI of 1, ~16-18 hours (FIG. 7)
Powassan virus = tested on: Powassan virus
SARS-CoV-2 = tested on: SARS-CoV-2

## N=C(NCCCOc1ccc(F)cc1)Nc1ccc(Cl)cc1 [CT189]
Androgen receptor (AR)
  DHT induced AR transcriptional activity: inhibition
Dengue virus
  Dengue virus infection (fold change, qPCR): inhibit
Zika virus
  Zika virus infection (fold change, qPCR): inhibit
Powassan virus
  Powassan virus infection (fold change, qPCR): inhibit
SARS-CoV-2
  blocked SARS-CoV-2 infection (fold): 1,000 fold
  effect on SARS-CoV-2 infection (in words): inhibit SARS-CoV-2 infection

## Cc1cc(OCCN2CCOCC2)nn1-c1ccc2ccccc2c1 [Compound S1RA, 4-[2-[[5-methyl-1-(2-naphthalenyl)-1H-pyrazol-3-yl]oxy]ethyl]morpholine]
SARS-CoV-2
  effect on SARS-CoV-2 infection (in words): did not block infection; also recorded: does not block infection

## O=C(CCCN1CCC(O)(c2ccc(Cl)cc2)CC1)c1ccc(F)cc1 [Haloperidol, 4-[4-(4-chlorophenyl)-4-hydroxypiperidin-1-yl]-1-(4-fluorophenyl)butan-1-one]
SARS-CoV-2
  effect on SARS-CoV-2 infection (in words): clear but modest antiviral effect

## N=C(Nc1ccc(I)cc1)NC1C2CC3CC(C2)CC1C3 (stereo not shown) [IPAG]
Androgen receptor (AR)
  DHT induced AR transcriptional activity: inhibition
SARS-CoV-2
  blocked SARS-CoV-2 infection (fold): 1,000 fold
  effect on SARS-CoV-2 infection (in words): inhibit SARS-CoV-2 infection

## O=C(OCCN1CCOCC1)C1(c2ccccc2)CCCCC1 [PRE084, 2-morpholin-4-ylethyl 1-phenylcyclohexane-1-carboxylate]
SARS-CoV-2
  effect on SARS-CoV-2 infection (in words): did not block infection

## COc1ccc(CCN2CCN(CCCc3ccccc3)CC2)cc1OC [SA4503, 1-(3,4-dimethoxyphenethyl)-4-(3-phenylpropyl) piperazine]
SARS-CoV-2
  effect on SARS-CoV-2 infection (in words): did not block infection
